Converted amounts (≈) assume the structure as drawn. Where two headings read alike, the source gives them in different places.
Experiments:
[1] = test system: Tat-hybrid reporter cell lines (HeLa); assay: MTT cell viability run in parallel with the Tat-hybrid assay; assay type: cell-based; conditions: Table 6; at 50,000 nM
Method: (§1) Cells were counted and plated into white 384-well or 96-well cell-culture treated assay plates and compounds were added. After 48 hours, the cells were prepared for luminescence assays that were performed on a plate reader (Tecan Evolution or MD Analyst). The cytotoxicity of each compound was determined in parallel via MTT-based cell viability assays.
as §1, with “Tat hybrid reporter assay. […] Previously characterized thienopyridines and diaminoacridine were used as controls. Cells” for “Cells”, “384-well” for “384-well or 96-well”, “lumincescence” for “luminescence”, “assays. […]” for “assays.”

[2] = as above; assay type: cell-based; conditions: human, Tat-hybrid reporter cell lines (HeLa); for EC50 at 48 h: Table 6, second 'EC50' entry of the cell, values D/E; for CC50 at 48 h: Table 5, read-out: Tat hybrid TC50
Method: as §1
as §1, with “Tat hybrid reporter assay. […] Previously characterized thienopyridines and diaminoacridine were used as controls. Cells” for “Cells”, “384-well” for “384-well or 96-well”, “lumincescence” for “luminescence”, “assays. […]” for “assays.”

[3] = MTT cell viability in parallel with the U1 assay; assay type: cell-based; conditions: human, U1 cells, read-out: U1 TC50
Method: (§2) U1 activation assay. U1 cells obtained from the AIDS Research and Reference Reagent Program were maintained under standard culture conditions in RPMI 1640 supplemented with 10% fetal bovine serum (heat inactivated), 2 mM L-glutamine, 100U/mL penicillin and 100 μg/mL streptomycin. U1 cells contain an integrated copy of a phorbol ester inducible HIV-1 provirus and addition of phytohemagglutinin (PHA) to the cell culture was used to induce virus production. On the day of the assay, the U1 cells were activated with PHA and 250,000 cells were plated in 96-well plates. Test compounds were diluted in media and applied to the cells at final concentrations from 1 to 10,000 nM. Cultures were incubated for 3 days and supernatants harvested. Cell-free virus production was measured by p24 ELISA on culture supernatant. Compound toxicity was determined by MTT cell-viability assay in parallel assays.

[4] = test system: HIV-1 provirus in U1 cells; assay: U1 activation (latency) assay, p24 ELISA; assay type: cell-based
Method: as §2

[5] = MTT cell viability in Jurkat replication assay; assay type: cell-based; conditions: human, Jurkat (E6-1) cells, pH 7.4
Method: (§3) Virus spreading assay. Jurkat (E6-1) cells (NIH AIDS Reagent Program) were cultured in RPMI media supplemented with 25 mM HEPES pH 7.4, 10% heat-inactivated fetal calf serum (Hyclone, Waltham Mass.), and 1% penicillin/streptomycin. 2.5×10^5 Jurkat cells were inoculated with 250 pg p24 in 250 μl media in a 96-well flat bottom polystyrene cell culture microplate. Input virus was removed after 18 hours via washing cells phosphate-buffered saline (PBS). Cells were resuspended in 250 μl of media containing compounds at the described concentrations. Cells were incubated at 37° C., 5% CO2 and supernatant samples were removed every 48 hours and replaced with fresh media containing the compounds. Viral replication was quantified using ELISA to quantify p24 viral capsid protein in the culture supernatant. Mouse monoclonal and rabbit polyclonal α-p24 antibodies used in the ELISA were obtained from the NIH AIDS Reagent Program. Toxicity was monitored using the MTT cell viability assay (Mosmann, T. (1983). J Immunol Methods 65, 55-63).

HIV-1 isolate NL4-3 = assay: Virus spreading / replication assay in Jurkat cells, p24 ELISA; assay type: cell-based
Method: as §3

Jurkat cells = assay: MTT cell viability in Jurkat replication assay; assay type: cell-based; conditions: Table 5; read-out: Jurkat TC50
Method: as §3

Caco-2 permeability = assay type: in vitro ADME; conditions: human
Source text: (§4) We next evaluated analogs 2b, 2f, 4a, and 4e in a panel of standard in vitro ADME assays to assess drug-like properties and the potential for efficacy in animals.

[6] = Aqueous solubility pH 7.4; assay type: physicochemical; conditions: aqueous solution, pH 7.4, pH 7.4, aqueous buffer
Source text: as §4

[7] = Human liver microsome stability; assay type: in vitro ADME; conditions: human liver microsomes; read-out: HLM T1/2
Source text: The more lipophilic analogs 4a and 4e also appear more prone to oxidative metabolism in the presence of human liver microsomes. This is perhaps unsurprising given the presence of methoxyphenyl (4a) and benzylic methylene (4e) functions, both potential sites of oxidative metabolism.

[8] = Human immunodeficiency virus 1, Table 6, read-out: U1 IC50
[9] = Human immunodeficiency virus 1, NL43, Jurkat, Table 5, read-out: Jurkat replication IC50
[10] = Human immunodeficiency virus 1, Table 5, read-out: U1 IC50
[11] = Human immunodeficiency virus 1, read-out: U1 cell IC50 (nM)

COCc1cc(C)nc2sc(C(N)=O)c(N)c12
Tat hybrid cell viability at 50,000 nM [1]: X (X = >60%) | EC50 at 48 h [2]: > 40 µM | CC50 at 3 days ([3]; Table 6): > 40 µM | IC50 [4, 8]: > 500 nM

NC(=O)c1cc2c(-c3ccc4ccccc4c3)cncc2s1
CC50 at 48 h [2]: > 40 µM | CC50 at 3 days ([3]; Table 5): < 40 µM | CC50 ([5]; Table 5, read-out: Jurkat TC50): < 40 µM | IC50 (HIV-1 isolate NL4-3; [9]): < 0.1 µM | IC50 [4, 10]: < 100 nM

NC(=O)c1sc2nc3c(c(-c4ccco4)c2c1N)CCCC3
Tat hybrid cell viability at 50,000 nM [1]: X (X = >60%) | EC50 at 48 h [2]: > 40 µM | CC50 at 3 days ([3]; Table 6): < 40 µM | IC50 [4, 8]: > 500 nM

NC(=O)c1sc2cncc(N3CCCCC3)c2c1N [drawing 134]
CC50 at 48 h [2]: > 40 µM | CC50 at 3 days ([3]; Table 5): < 40 µM | CC50 (Jurkat cells): > 40 µM | IC50 (HIV-1 isolate NL4-3; [9]): < 0.1 µM | IC50 [4, 10]: < 100 nM

NC(=O)c1sc2nccc(Nc3ccccc3)c2c1N
Tat hybrid cell viability at 50,000 nM [1]: Y (Y = 30-60%) | EC50 at 48 h [2]: > 40 µM | CC50 at 3 days ([3]; Table 6): > 40 µM | IC50 [4, 8]: 100 to 500 nM

NC(=O)c1cc2c(-c3ccc4c(c3)CCO4)cncc2s1 [drawing 128]
CC50 at 48 h [2]: > 40 µM | CC50 at 3 days ([3]; Table 5): < 40 µM | CC50 (Jurkat cells): < 40 µM | IC50 (HIV-1 isolate NL4-3; [9]): < 0.1 µM | IC50 [4, 10]: < 100 nM

NC(=O)c1sc2cncc(N3CCCCC3)c2c1N [Compound 2b, 3-amino-4-(piperidin-1-yl)thieno[2,3-c]pyridine-2-carboxamide]
Papp (Caco-2 permeability): 50.5 ×10⁻⁶ cm/s | CC50 ([5]; Jurkat infectivity assay, read-out: TC50 (MTT cell viability)): > 40 µM | solubility [6]: 34 µM (≈ 9.4 µg/mL) | IC50 (HIV-1 isolate NL4-3; Human immunodeficiency virus 1, NL43, Jurkat, Table 2, NL4-3, read-out: Jurkat HIV-1 replication assay): < 0.1 µM | IC50 (HIV-1 isolate NL4-3; Human immunodeficiency virus 1, NL43, Jurkat, read-out: IC50 in the HIV replication assay): 0.0768 µM | IC50 (HIV-1 isolate NL4-3; Table 1, read-out: Jurkat HIV-1 replication assay): < 0.1 µM | IC50 [4, 11]: < 100 nM | IC50 ([4]; Human immunodeficiency virus 1, read-out: IC50 in the U1 assay): 28 nM | half-life [7]: 28 min

COc1ccc(-c2cncc3sc(C(N)=O)cc23)cc1 [drawing 129]
CC50 at 48 h [2]: < 40 µM | CC50 at 3 days ([3]; Table 5): < 40 µM | CC50 ([5]; Table 5, read-out: Jurkat TC50): < 40 µM | IC50 (HIV-1 isolate NL4-3; [9]): < 0.1 µM | IC50 [4, 10]: < 100 nM

CCc1c(C)nc2sc(C(N)=O)c(N)c2c1C
Tat hybrid cell viability at 50,000 nM [1]: Y (Y = 30-60%) | EC50 at 48 h [2]: > 40 µM | CC50 at 3 days ([3]; Table 6): > 40 µM | IC50 [4, 8]: > 500 nM

NC(=O)c1cc2c(-c3ccc4c(c3)OCO4)cncc2s1 [drawing 137]
CC50 at 48 h [2]: < 40 µM | CC50 at 3 days ([3]; Table 5): < 40 µM | IC50 [4, 10]: < 100 nM

NC(=O)c1cc2c(-c3ccc4c(c3)OCCO4)cncc2s1
CC50 at 48 h [2]: < 40 µM | CC50 at 3 days ([3]; Table 5): < 40 µM | IC50 [4, 10]: < 100 nM

NC(=O)c1sc2cncc(N3CCc4sccc4C3)c2c1N
CC50 at 48 h [2]: > 40 µM | CC50 at 3 days ([3]; Table 5): < 40 µM | IC50 [4, 10]: < 100 nM

NC(=O)c1sc2cncc(N3CCC4(CC3)OCCO4)c2c1N [drawing 161]
CC50 at 48 h [2]: < 40 µM | CC50 at 3 days ([3]; Table 5): > 40 µM | IC50 [4, 10]: 100 to 500 nM

Cc1cc(C)c2c(N)c(C(N)=O)sc2n1
Tat hybrid cell viability at 50,000 nM [1]: Z (Z = <30%) | EC50 at 48 h [2]: > 40 µM | CC50 at 3 days ([3]; Table 6): > 40 µM | IC50 [4, 8]: > 500 nM

N#Cc1ccccc1-c1cncc2sc(C(N)=O)cc12 [drawing 164]
CC50 at 48 h [2]: > 40 µM | CC50 at 3 days ([3]; Table 5): > 40 µM | IC50 [4, 10]: > 500 nM

COc1ccc(-c2cncc3sc(C(N)=O)c(N)c23)cc1 [drawing 136]
CC50 at 48 h [2]: < 40 µM | CC50 at 3 days ([3]; Table 5): > 40 µM | IC50 [4, 10]: < 100 nM

NC(=O)c1cc2c(-c3cnc4ccccc4c3)cncc2s1
CC50 at 48 h [2]: > 40 µM | CC50 at 3 days ([3]; Table 5): > 40 µM | CC50 ([5]; Table 5, read-out: Jurkat TC50): > 40 µM | IC50 (HIV-1 isolate NL4-3; [9]): < 0.1 µM | IC50 [4, 10]: < 100 nM

CC(=O)N1CCN(c2cncc3sc(C(N)=O)c(N)c23)CC1 [drawing 144]
CC50 at 48 h [2]: > 40 µM | CC50 at 3 days ([3]; Table 5): > 40 µM | CC50 ([5]; Table 5, read-out: Jurkat TC50): > 40 µM | IC50 (HIV-1 isolate NL4-3; [9]): > 0.5 µM | IC50 [4, 10]: 100 to 500 nM

NC(=O)c1cc2c(N3CCCCC3)cncc2s1
CC50 at 48 h [2]: > 40 µM | CC50 at 3 days ([3]; Table 5): < 40 µM | IC50 [4, 10]: 100 to 500 nM

CC(=O)N1CCN(c2cncc3sc(C(N)=O)c(N)c23)CC1 [Compound 2f, 4-(4-acetylpiperazin-1-yl)-3-aminothieno[2,3-c]pyridine-2-carboxamide]
Papp (Caco-2 permeability): 9.7 ×10⁻⁶ cm/s | solubility [6]: 258 µM (≈ 82.4 µg/mL) | IC50 (HIV-1 isolate NL4-3; Human immunodeficiency virus 1, NL43, Jurkat, Table 1, read-out: Jurkat HIV-1 replication assay): > 0.5 µM | IC50 [4, 11]: 100 to 500 nM | half-life [7]: > 60 min

NC(=O)c1sc2cncc(N3CCCC(COc4ccccc4F)C3)c2c1N (stereo not shown)
CC50 at 48 h [2]: < 40 µM | CC50 at 3 days ([3]; Table 5): < 40 µM | IC50 [4, 10]: > 500 nM

Reference: patent publication US10154992B2, “Compounds and methods for treating HIV infection” (THE REGENTS OF THE UNIVERSITY OF CALIFORNIA, priority 2016, dated 2018)
